Reference: US9260382B2, “Methods of reducing virulence in bacteria” (priority 2010, dated 2016)

Key:
[1] = test system: Pseudomonas syringae pv. tomato DC3000; experiment: DC3000 bacterial growth, colony counts; assay type: cell-based; conditions: 6 h and 9 h
Protocol: To determine the maximum concentration of TCA that will inhibit hrpA promoter activity without affecting bacterial growth, DC3000 carrying phrpA was cultured in HIM and HIM supplemented with 25 μM, 50 μM, 100 μM, 250 μM, or 500 μM of TCA. Promoter activity was measured at 6 h and 9 h as mentioned above using flow cytometry. Bacterial growth was determined by withdrawing samples of each culture and spot-plating serial dilutions onto King's B agar (King et al. 1954) in tandem with promoter activity assays. Colonies were counted after 48 h of incubation at 28° C.

[2] = test system: hrpW mRNA; experiment: Real-time PCR of hrpW in DC3000; assay type: cell-based, Pseudomonas syringae pv. tomato DC3000; conditions: HIM supplemented with 250 μM, 9 h
Protocol: DC3000 was cultured in KB medium overnight at 28° C. and subcultured in HIM medium supplemented with DMSO or with 250 μM TCA for 9 h. Total bacterial RNA was isolated using RNeasy Mini Kit (QIAGEN, Valencia, Calif.) and treated with Turbo DNA-free DNase kit (Ambion, Austin, Tex.). cDNA was synthesized using iScript cDNA Synthesis Kit (Bio-Rad, Hercules, Calif.) from 0.8 μg of total RNA. The Real Master Mix SYBR ROX (5 PRIME, Gaithersburg, Md.) was used for real-time PCR reactions to quantify the cDNA level of target genes in different samples. Data were collected by the Opticon 2 system (Bio-Rad) and analyzed using Relative Expression Software Tool as described by Pfaffl and associates (Pfaffl et al. 2002). Two housekeeping genes, gyrA (PSPTO1745) and gap1 (PSPTO1287) were used as endogenous controls for data analysis. The PCR efficiencies of the primers are: gyrA, 1.93; gap1, 2.08; and hrpW, 1.93.

[3] = test system: Pseudomonas syringae pv. tomato DC3000; experiment: Virulence assay in tomato plants (bacterial speck); assay type: in vivo; conditions: five days post-inoculation; for bacterial speck lesions on tomato plants, in words: DC3000 with 250 μM
Protocol: Virulence assays were performed in 4-5 week old tomato plants. Bacterial cell suspensions were adjusted to 6×10^5 cells/ml in dH2O with 0.02% Silwet L-77 (Lehle Seeds, Round Rock, Tex.). Lycopersicon esculentum cv. Moneymaker plants were dip-inoculated into negative control solution (dH2O with 0.02% Silwet L-77 and DMSO), positive control solution (DC3000 in dH2O with 0.02% Silwet L-77 and DMSO), or with a chemical treatment solution (DC3000 in dH2O with 0.02% Silwet L-77 and 250 μM TCA). Leaves were air-dried and plants were covered with a plastic dome and returned to the growth chamber. Plants were scored for disease symptoms using a modified scoring system (Kozik and Nowakowska 2010) five days post-inoculation. Lesions of bacterial speck on tomato were counted and the plants were scored using the following DSI scale: 0=no lesions per plant, 1=1-10 lesions, 2=11-20 lesions, 3=21-40 lesions, 4=>40 lesions.
The effects of TCA on virulence in tomato plants were examined. Lycopersicon esculentum cv. Moneymaker plants were dip-inoculated with a negative control treatment (dH2O with 0.02% Silwet L-77 and DMSO), a positive control treatment (DC3000 in dH2O with 0.02% Silwet L-77 and DMSO), or with a chemical treatment (DC3000 in dH2O with 0.02% Silwet L-77 and 250 μM TCA) as described in the methods. The lesions of bacterial speck on leaves per plant were counted and plants were classified with a disease severity index (DSI) as described in the methods. […] Plants treated with DC3000 were all scored with a DSI of four (FIG. 36B).

[4] = test system: gacA mRNA; experiment: qRT-PCR relative mRNA level of gacA; assay type: cell-based, Dickeya dadantii 3937; conditions: 0.1 mM in MM
Protocol: (§1) Bacterial strains were grown in MM. Total RNA from the bacterial cells was isolated by using the TRI reagent method (Sigma, Mo.) and treated with Turbo DNA-free DNase kits (Ambion, Tex.) as described (Peng et al., 2006). An iScript cDNA Synthesis Kit (Bio-Rad, CA) was used to synthesize cDNA from 0.5 μg of treated total RNA. The Real Master Mix (Eppendorf, Westbury, N.Y.) was used for qRT-PCR reaction to quantify the cDNA level of target genes in different samples. The rplU was used as the endogenous control for data analysis. qRT-PCR data were analyzed using Relative Expression Software Tool as described (Pfaffl, M. W., Horgan, G. W., and Dempfle, L. (2002) Relative expression software tool (REST) for group-wise comparison and statistical analysis of relative expression results in real-time PCR. Nucleic Acids Res 30:e36.).

[5] = test system: hrpS mRNA; experiment: qRT-PCR relative mRNA level of hrpS; assay type: cell-based, Dickeya dadantii 3937; conditions: 0.1 mM in MM
Protocol: as §1

[6] = test system: P. aeruginosa; experiment: P. aeruginosa bacterial growth with compound; assay type: cell-based, P. aeruginosa PA01
Protocol: To identify T3SS inhibitors of PA01, a promoter-probe vector pPROBE-AT containing the promoterless green fluorescent protein (gfp) gene was used to construct an exoS promoter-gfp plasmid reporter, pATexoS. PA01 containing pATexoS was cultured in T3SS-inducing medium containing dimethyl sulfoxide (DMSO; solvent of chemical compounds), or supplemented with 250 μM of each compound, and promoter activity was assessed at 6 h by measuring GFP intensity using flow cytometry. 101 compounds (58 synthesized and 43 commercially available) were screened. Compounds 027, 032, 101, and 149 repressed exoS expression at the final concentration of 250 μM by at least one standard deviation below the sample average (Z score≦−1) (FIG. 37 A-E). Z score (or standard score) indicates how many standard deviations an observation or datum is above or below the mean [z=(x−μ)/σ, where x is a raw score to be standardized, μ is the mean of the population, and σ is the standard deviation of the population].
To determine the effective concentration of compounds, the dose-dependent effect of potential inhibitors on exoS expression and bacterial growth were tested. P. aeruginosa cells carrying pATexoS were pre-cultured in LB supplemented with 200 mM NaCl and transferred to fresh LB with 200 mM NaCl, 10 mM NTA, and various concentrations of compounds (20, 50, 100, and 250 μM) or DMSO for 6 h. […] At 50 μM dosage, both 027 and 101 inhibited exoS expression at similar levels, and this inhibitory effect increased as compound concentration increased (FIG. 38A and Table 17). […] These inhibitions/inductions of exoS expression are caused by the shifting bacterial population between low-state expression cells and high-state expression cells (FIG. 40).

[7] = test system: hrpN mRNA; experiment: qRT-PCR relative mRNA level of hrpN; assay type: cell-based, Dickeya dadantii 3937; conditions: 0.1 mM in MM
Protocol: as §1

[8] = test system: hrpL mRNA; experiment: qRT-PCR relative mRNA level of hrpL; assay type: cell-based, Dickeya dadantii 3937; conditions: MM supplemented with 0.1 mM
Protocol: as §1

O=C(O)/C=C/c1ccccc1 [Compound 001, trans-cinnamic acid]
colony counts of DC3000 vs control culture, in words ([1]; HIM + 500 μM): slightly lower
effect on growth of DC3000, in words ([1]; HIM, at or below concentrations of 250 μM): does not significantly inhibit nor enhance growth
hrpW mRNA relative expression ratio vs HIM alone [2]: 0.07
disease severity index (DSI) ([3]; tomato Lycopersicon esculentum cv. Moneymaker dip-inoculated with DC3000 and 250 μM): zero
bacterial speck lesions on tomato plants, in words [3]: No lesions of bacterial speck were observed
bacterial speck lesions on tomato plants, in words ([3]; listed as TCA): no bacterial speck lesions were observed

O=C(O)/C=C/c1ccccc1O [Compound 006, Ortho-coumaric acid]
gacA mRNA compared with MM alone, in words [4]: No significant difference
hrpS mRNA compared with MM alone, in words [5]: No significant difference

O=C(/C=C/c1ccc(O)cc1)NO [Compound 103, trans-4-Hydroxycinnamohydroxamic acid]
effect on bacterial growth, in words ([6]; P. aeruginosa, 250 μM): some inhibition on bacterial growth
dose-dependent effect on P. aeruginosa growth, in words ([6]; various concentrations (up to 250 μM for 101, up to 500 μM for 027), FIG. 39): inverse relationship was observed between the compound concentration and bacterial growth

O=C(O)/C=C/c1ccc(O)cc1 [Compound 004, para-coumaric acid]
hrpN mRNA compared with MM alone, in words [7]: significantly lower amount of mRNA
hrpL mRNA relative expression ratio (MM alone normalized to 1) [8]: 0.039
